# Results taken from patent publication US12552753B2, “Methods and compositions for targeting Tregs using CCR8 inhibitors” (Nanjing Immunophage Biomedical Co., Ltd., priority 2020, dated 2026).
# Where a name gives a salt, the structure may show the parent alone.
# Target: CCR8 (Homo sapiens, UniProt P51685)
# Assay: Tango assay (Tango-CCR8-Gal4-CHO-K1 cells, CCL1-stimulated, ONE-Glo luminescence)
# Conditions: Tango Assay IC50, Inhibition of CCR8 Tango cell in vitro
# CCR8, sequence (P51685 whole entry, the tested form may be a part): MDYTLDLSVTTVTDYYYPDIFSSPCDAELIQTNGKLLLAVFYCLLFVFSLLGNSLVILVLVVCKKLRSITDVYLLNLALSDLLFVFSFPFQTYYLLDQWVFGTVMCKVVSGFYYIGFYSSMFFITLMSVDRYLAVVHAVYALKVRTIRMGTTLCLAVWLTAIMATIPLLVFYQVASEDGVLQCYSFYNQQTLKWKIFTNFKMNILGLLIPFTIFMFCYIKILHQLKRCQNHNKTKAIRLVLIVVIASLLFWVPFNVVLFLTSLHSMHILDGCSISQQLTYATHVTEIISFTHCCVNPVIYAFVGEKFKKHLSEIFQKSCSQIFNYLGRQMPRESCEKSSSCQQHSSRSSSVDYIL
row,Compound,IC50 [nM]
1,"O=S(=O)(NC1CCOCC1)c1ccc(-c2nc3ccccc3[nH]2)cc1 [Compound 109, 4-(1H-benzo[d]imidazol-2-yl)-N-(tetrahydro-2H-pyran-4-yl)benzenesulfonamide]",> 10000
2,"Cc1ccccc1C(=O)Nc1cc(F)c(S(=O)(=O)NC2CCNCC2)cc1Cl [Compound 311, N-(2-chloro-5-fluoro-4-(N-(piperidin-4-yl)sulfamoyl)phenyl)-2-methylbenzamide hydrochloride]",> 100000
3,"COC(=O)CN1CCC([C@@H](C)NS(=O)(=O)c2ccc(NC(=O)c3ccccc3C)c(C)c2)CC1 [Compound 248, methyl(R)-2-(4-(1-((3-methyl-4-(2-methylbenzamido)phenyl)sulfonamido)ethyl)piperidin-1-yl)acetate]",105
4,"Cc1ccccc1C(=O)Nc1ccc(S(=O)(=O)N[C@H](C)C2CCN(C(=O)OC(C)(C)C)CC2)c(F)c1C [Compound 176, (R)-tert-butyl 4-(1-(2-fluoro-3-methyl-4-(2-methylbenzamido)phen-ylsulfonamido)ethyl)pi-perridine-1-carboxylate]",711
5,"CC(=O)N1CCOC(C(C)NS(=O)(=O)c2ccc(NC(=O)c3ccccc3C)c3ccccc23)C1 (stereo not drawn) [Compound 86, N-(4-(N-(1-(4-acetylmorpholin-2-yl)ethyl)sulfamoyl)naph-thalen-1-yl)-2-methylbenzamide]",2300
6,"Cc1ccccc1C(=O)Nc1ccc(S(=O)(=O)NC(C)CC2CCN(C(=O)OC(C)(C)C)CC2)c2ccccc12 (stereo not drawn) [Compound 127, tert-butyl 4-(2-(4-(2-methylbenzamido)naphthalene-1-sulfonamido)propyl) piperidine-1-carboxylate]",575
7,"Cc1ccccc1C(=O)Nc1ccc(S(=O)(=O)N[C@H](C)C2CCNCC2)cc1C#N [Compound 195, (R)-N-(2-cyano-4-(N-(1-(piperidin-4-yl)ethyl)sulfamoyl)phenyl)-2-methylbenzamide]",23
8,"Cc1ccccc1C(=O)Nc1ccc(S(=O)(=O)NC2CCN(C)c3ccccc32)c2ccccc12 (stereo not drawn) [Compound 32, 2-methyl-N-(4-(N-(1-methyl-1,2,3,4-tetrahydroquinolin-4-yl)sulfamoyl)naphthalen-1-yl)benzamide]",89
9,"Cc1ccccc1C(=O)Nc1ccc(S(=O)(=O)NC(=O)c2ccccc2N2CCCCC2)c2ccccc12 [Compound 12, 2-methyl-N-(4-(N-(2-(piperidin-1-yl)benzoyl)sulfamoyl)naphthalen-1-yl)benzamide]",> 10000
10,"Cc1ccccc1C(=O)Nc1ccc(S(=O)(=O)N[C@H](C)C2CCNCC2)c(C)c1Cl [Compound 245A, (R)-N-(2-chloro-3-methyl-4-(N-(1-(piperidin-4-yl)ethyl)sulfamoyl)phen-yl)-2-methylbenzamide hydrochloride]",> 100000
11,"CCCN1CCN(c2cccc(NS(=O)(=O)c3ccc(NC(=O)c4ccccc4C)c4ccccc34)c2C)CC1 [Compound 2, 2-methyl-N-(4-(N-(2-methyl-3-(4-propylpiperazin-1-yl)phenyl)sulfamoyl)naphthalen-1-yl)benzamide]",> 10000
12,"Cc1ccccc1C(=O)Nc1ccc(S(=O)(=O)NC2CCOc3ccccc32)cc1 (stereo not drawn) [Compound 53, N-(4-(N-(chroman-4-yl)sulfamoyl)phenyl)-2-methylbenzamide]",> 10000
13,"CCCC(=O)N1CCC(NS(=O)(=O)c2ccc(Nc3ncnc4ccccc34)c3ccccc23)CC1 [Compound 115, N-(1-butyrylpiperidin-4-yl)-4-(quinazolin-4-ylamino)naphthalene-1-sulfonamide]",1500
14,"Cc1cc(S(=O)(=O)N[C@H](C)C2CCN(C(=O)OC(C)(C)C)CC2)ccc1NC(=O)c1ccccc1C [Compound 160, (R)-tert-butyl 4-(1-(3-methyl-4-(2-methylbenzamido)phen-ylsulfonamido)ethyl)piper-idine-1-carboxylate]",> 10000
15,"CCCN1CCN(c2c(F)cccc2NS(=O)(=O)c2ccc(NC(=O)c3ccccc3C)c3ccccc23)CC1 [Compound 92, N-(4-(N-(3-fluoro-2-(4-propylpiperazin-1-yl)phenyl)sulfamoyl)naphthalen-1-yl)-2-methylbenzamide]",> 10000
16,"Cc1cc(S(=O)(=O)N[C@H](C)C2CCNCC2)c(Cl)cc1NC(=O)c1ccccc1C [Compound 169A, (R)-N-(5-chloro-2-methyl-4-(N-(1-(piperidin-4-yl)ethyl)sulfamoyl)phen-yl)-2-methylbenzamide hydrochloride]",12

row,Compound,IC50 [nM]
1,"CCN1CCCN(C(c2cccc(NS(=O)(=O)c3ccc4ccccc4c3)c2)C(F)(F)F)CC1 (stereo not drawn) [Compound 279, N-(3-(1-(4-ethyl-1,4-diazepan-1-yl)-2,2,2-trifluoroethyl)phenyl)naphthalene-2-sulfonamide]",> 100000
2,"Cc1cc(S(=O)(=O)N[C@H](C)C2CCNCC2)c(C)cc1NC(=O)c1ccccc1C [Compound 171A, (R)-N-(2,5-dimethyl-4-(N-(1-(piperidin-4-yl)ethyl)sulfamoyl)phen-yl)-2-methylbenzamide hydrochloride]",19
3,"C[C@H](N)C(=O)N1CCC(NS(=O)(=O)c2ccc(-c3nc4ccccc4[nH]3)cc2)CC1 [Compound 104, (S)-N-(1-(2-aminopropanoyl)piperi-din-4-yl)-4-(1H-benzo[d]imidazol-2-yl)benzenesulfonamide]",258
4,"COC(=O)CN1CCCC(C(C)NS(=O)(=O)c2ccc(NC(=O)c3ccccc3C)c3ccccc23)C1 (single isomer, unassigned) [Compound 19B, methyl 2-(3-(1-(4-(2-methylbenzamido)naph-thalene-1-sulfonamido)ethyl)piper-idin-1-yl)acetate]",> 10000
5,"CCCC(=O)N1CCC(NS(=O)(=O)c2ccc(Nc3cc(C)ncn3)c3ccccc23)CC1 [Compound 116, N-(1-butyrylpiperidin-4-yl)-4-((6-methylpyrimidin-4-yl)amino)naphthalene-1-sulfonamide]",> 10000
6,"Cc1cc(S(=O)(=O)N[C@H](C)C2CCN(C3CCCC3)CC2)ccc1NC(=O)c1ccccc1C [Compound 247, (R)-N-(4-(N-(1-(1-cyclopentylpiperidin-4-yl)ethyl)sulfamoyl)-2-methylphenyl)-2-methylbenzamide]",1
7,"Cc1ccccc1C(=O)Nc1ccc(S(=O)(=O)NC(C)c2cccc(N(C)C)c2)c2ccccc12 (stereo not drawn) [Compound 26, N-(4-(N-(1-(3-(dimethylamino)phenyl)ethyl)sulfamoyl)naph-thalen-1-yl)-2-methylbenzamide]",83
8,"Cc1ccccc1C(=O)Nc1ccc(S(=O)(=O)N[C@H](C)C2CCNCC2)c(C(F)(F)F)c1 [Compound 189A, (R)-2-methyl-N-(4-(N-(1-(piperidin-4-yl)ethyl)sulfamoyl)-3-(trifluoromethyl)phenyl) benzamide hydrochloride]",> 10000
9,"Cc1cc(S(=O)(=O)NC(CO)C2CCNCC2)ccc1NC(=O)c1ccccc1C (stereo not drawn) [Compound 234, N-(4-(N-(2-hydroxy-1-(piperidin-4-yl)ethyl)sulfamoyl)-2-methylphenyl)-2-methylbenzamide]",1400
10,"Cc1ccccc1C(=O)Nc1ccc(S(=O)(=O)NCc2cccc(N(C)C)c2)c2ccccc12 [Compound 25, N-(4-(N-(3-(dimethylamino)benzyl)sulfamoyl)naphthalen-1-yl)-2-methylbenzamide]",1040
11,"CN(C)CCN1CCOc2cc(NS(=O)(=O)c3ccc4ccccc4c3)ccc2C1=O [Compound 280, N-(4-(2-(dimethylamino)ethyl)-5-oxo-2,3,4,5-tetrahydrobenzo[f][1,4]oxazepin-8-yl)naphthalene-2-sulfonamide]",> 100000
12,"COC(=O)[C@H](NS(=O)(=O)c1ccc(NC(=O)c2ccccc2C)c2ccccc12)C1CCCCC1 [Compound 50, (R)-methyl 2-cyclohexyl-2-(4-(2-methylbenzamido)naph-thalene-1-sulfonamido)acetate]",12
13,"Cc1ccccc1C(=O)Nc1ccc(S(=O)(=O)NC(CO)C2CCCCC2)c2ccccc12 (stereo not drawn) [Compound 48, N-(4-(N-(1-cyclohexyl-2-hydroxyethyl)sulfamoyl)naphthalen-1-yl)-2-methylbenzamide]",170
14,"Cc1ccccc1C(=O)Nc1ccc(S(=O)(=O)Nc2ccc3c(c2)N(CCN(C)C)C(=O)CO3)c2ccccc12 [Compound 20, N-(4-(N-(4-(2-(dimethylamino)ethyl)-3-oxo-3,4-dihydro-2H-benzo[b][1,4]oxazin-6-yl)sulfamoyl)naphthalen-1-yl)-2-methylbenzamide]",> 10000
15,"Cc1cc(S(=O)(=O)N[C@H](C)C2CCN(C)CC2)ccc1NC(=O)c1ccc(F)cc1C [Compound 276, (R)-4-fluoro-2-methyl-N-(2-methyl-4-(N-(1-(1-methylpiperidin-4-yl)ethyl)sulfamoyl)phenyl) benzamide hydrochloride]",10
16,"CC(NS(=O)(=O)c1ccc2[nH]ncc2c1)C1CCCCC1 (stereo not drawn) [Compound 79, N-(1-cyclohexylethyl)-1H-indazole-5-sulfonamide]",> 1000

# Same assay, conditions: read-out: Tango Assay IC50, Inhibition of CCR8 Tango cell in vitro
row,Compound,IC50 [nM]
1,"Cc1ccccc1C(=O)Nc1ccc(S(=O)(=O)NC(C)C2CCNC2)c2ccccc12 (stereo not drawn) [Compound 66, 2-methyl-N-(4-(N-(1-(pyrrolidin-3-yl)ethyl)sulfamoyl)naph-thalen-1-yl)benzamide]",85
2,"COC1CCC([C@@H](C)NS(=O)(=O)c2ccc(NC(=O)c3ccccc3C)c(C)c2)CC1 (single isomer, unassigned) [Compound 293A, N-(4-(N-(1-(4-methoxycyclohexyl)ethyl)sulfamoyl)-2-methylphenyl)-2-methylbenzamide]",24
3,"Cc1ccccc1C(=O)Nc1ccc(S(=O)(=O)Nc2ccc3c(c2)C(=O)N(CCN(C)C)CCO3)c2ccccc12 [Compound 96, N-(4-(N-(4-(2-(dimethylamino)ethyl)-5-oxo-2,3,4,5-tetrahydrobenzo[f][1,4]oxazepin-7-yl)sulfamoyl)naphthalen-1-yl)-2-methylbenzamide]",> 10000
4,"Cc1ccccc1C(=O)Nc1ccc(S(=O)(=O)NC(C)C2CCCNC2)c2ccccc12 (stereo not drawn) [Compound 17, 2-methyl-N-(4-(N-(1-(piperidin-3-yl)ethyl)sulfamoyl)naph-thalen-1-yl)benzamide]",112
